# Patent US11304958B2, “Multidentate phenanthridine-containing ligand frameworks and their planar monofunctional platinum complexes for cancer treatment” (UNIVERSITY OF MANITOBA, priority 2018, dated 2022)
# Read-outs that look alike come from different tables or passages of the source.
# Key:
# [1] = tested on: A2780 (cisplatin sensitive) ovarian cancer cell line; test: MTT cytotoxicity assay, A2780 ovarian cancer cells; type: cell-based, human; settings: for IC50: 72 h; for in vitro cytotoxic activity in the absence of platinum(II): A2780 and A2780cis cell lines
# Description: (§1) In addition, neither the 4-aminophenanthridine precursors nor the proligands L1 or L2 themselves are effective in the absence of platinum(II). As noted above, intercalation enhances covalent binding and ultimately boosts the number of complex-DNA adducts observed for phenanthriplatin, but only when these two processes are simultaneous (30). Phenanthridines in general are anticipated to interact with DNA via an intercalation mechanism, similar to the mechanism of operation of the DNA stain ethidium bromide, of which phenanthridine forms the molecular core (19). […] The differing profile compared to cisplatin (i.e., higher in vitro efficacy and lower cross-resistance) implies a different mechanism of operation from cisplatin, which, considering to the planar structure of 1 and 2 compared to phenanthriplatin (10) likely involves some degree of intercalation. The higher efficacy for 2 (R═CF3) vs 1 (R=tBu) highlights the opportunity to fine-tune biological activity via ligand backbone substitution.
# (§2) In addition, neither the phenanthridinyl amines (2-R) nor the ligand itself (L2) are effective in the absence of platinum(II). While not wishing to be bound or limited to a particular theory or hypothesis, it is believed that substituted phenanthridines interact with DNA via an intercalation mechanism, similar to the mechanism of operation of the DNA stain ethidium bromide (19). […] The differing profile compared to cisplatin (i.e., higher in vitro efficacy and lower cross-resistance) implies a different mechanism of operation from cisplatin, which, considering to the planar structure of NNOPt compared to phenanthriplatin (10) likely involves some degree of intercalation. The higher efficacy for 2 (R═CF3) vs 1 (R=tBu) highlights the opportunity to fine-tune biological activity via ligand backbone substitution.
# (§3) Cell line: A2780 (ovarian cells), A2780cis (ovarian cells, drug resistant)
# (§4) RPMI medium: 10% FBS, 1% PS, 89% RPMI 1×, with L-glutamine
# (§5) MTT (5 mg/MI Thiazolyl Blue tetrazolium bromide in PBS)
# (§6) A volume of 100 μL of RPMI medium (10% FBS, 1% PS, 89% RPMI 1×, with L-glutamine) containing 2000 cells was seeded in each well of a 96-well microplate, and incubated for 24 h at 37° C. under 5% CO2. After 24 h, a volume of 50 μL of media containing the new compounds of different concentrations was added to the well. The drug-treated cells were incubated for 72 h at 37° C. with 5% CO2. A volume of 30 μL media containing MTT was added into each well, and incubated for 2-4 h at 37° C. with 5% CO2. MTT would be reduced to formazan in living cells.
# (§7) Following this, the media were removed carefully by aspiration and 200 μL DMSO was added into each well. The DMSO is used to dissolve the insoluble formazan into a purple solution. The 96-well microplate with DMSO was then shaken for 10 min at room temperature. Final results were obtained by using a microplate reader to examine the absorbance at 562 nm. Analysis of the data was carried out using Origin™.
# (§8) A2780 and A2780cis cell lines were cultured in RPM11640 with L-glutamine supplemented with 10% FBS and 1% PS. SKOV-3, MDA-MB-231, A549, and HEK293 cell line were cultured in DMEM 1 g/L glucose, with L-glutamine & sodium pyruvate supplemented with 10% FBS and 1% PS. MET5A cell line was cultured in M199 supplemented with 10% FBS, 1% PS, insulin, 0.1% Trace Elements B, […] Hydrocortisone, and 4 ng/mL EGF. All cell lines were incubated at 37° C. under an atmosphere containing 5% CO2. Cells were passaged by trypsinization and split in a 1:5 ratio.
# [2] = tested on: A2780cis (cisplatin resistant) ovarian cancer cell line; test: MTT cytotoxicity assay, A2780cis ovarian cancer cells; type: cell-based, human; settings: for resistance factor RF = IC50(A2780cis)/IC50(A2780): ovarian cancer cell lines, FIG. 14B
# Description: as §1
# (§9) Cisplatin and phenanthriplatin were used as controls. Cancer and normal cells were treated for 72 h and cell viability was assessed.
# as §2, §3, §4, §5, §6, §7, §8
# [3] = tested on: Human Cancer Cells; settings: reportedly, ref. (9); cited from earlier work
# [4] = tested on: non-cancerous kidney cell line HEK293; test: Cytotoxicity screening against normal cells, HEK293; type: cell-based, human; settings: 72 h, compared with phenanthriplatin
# Procedure: as §9, §6, §7
# (§10) A2780 and A2780cis cell lines were cultured in RPM11640 with L-glutamine supplemented with 10% FBS and 1% PS. SKOV-3, MDA-MB-231, A549, and HEK293 cell line were cultured in DMEM 1 g/L glucose, with L-glutamine & sodium pyruvate supplemented with 10% FBS and 1% PS. […]
# [5] = tested on: non-cancerous mesothelial cell line MET-5A; test: Cytotoxicity screening against normal cells, MET-5A; type: cell-based, human; settings: 72 h, compared with phenanthriplatin
# Procedure: as §9, §6, §7, §10
# [6] = Homo sapiens, A2780, preliminary cytotoxicity data
# [7] = Homo sapiens, A2780cis, preliminary cytotoxicity data, MTT, 72 h, read-out: A2780cis IC50
# [8] = preliminary cytotoxicity data, MTT, 72 h, read-out: A2780cis IC50
# [9] = further screening (FIG. 14A), treated for 72 h, read-out: IC50 in A2780cis cisplatin-resistant ovarian cancer cell line
molecule,measurement,setting,value
"Nc1cc(C(F)(F)F)cc2c1ncc1ccccc12 [Complex 2-CF3, 2-trifluoromethyl-4-aminophenanthridine]",IC50,[1]; [6],19.3 ± 12.1 µM
same,IC50,[2]; [7],> 100 µM
"CC(C)(C)c1cc(N)c2ncc3ccccc3c2c1 [Complex 2-tBu, 2-tert-butyl-4-aminophenanthridine]",IC50,[1]; [6],8.38 ± 2.83 µM
same,IC50,[2]; [7],20.5 ± 6.07 µM
"CC(=O)C=C(C)Nc1cc(C(C)(C)C)cc2c1ncc1ccccc12 [Complex L1, 4-(2′-tert-butyl-4-aminophenanthridinyl)-3-penten-2-one]",in vitro cytotoxic activity in the absence of platinum(II),[1],lack of activity
"CC(=O)C=C(C)Nc1cc(C(F)(F)F)cc2c1ncc1ccccc12 [Complex L2, 4-(2′-trifluoromethyl-4′-aminophenanthridinyl)-3-penten-2-one]",in vitro cytotoxic activity in the absence of platinum(II),[1],lack of activity
same,IC50,[1]; preliminary cytotoxicity data,7.22 ± 2.07 µM
same,IC50,[2]; [8],20.1 ± 7.17 µM
"N.N.[Cl][Pt][Cl] [cisplatin, cis-diaminedichloroplatinum(II), reference compound]",IC50,[1]; preliminary cytotoxicity data,0.375 ± 0.217 µM
same,IC50,[2]; [9],32.9 ± 8.82 µM
same,resistance factor RF = IC50(A2780cis)/IC50(A2780),[2],23
same,IC50,[2]; [8],7.76 ± 0.497 µM
"N.N.O=[N+]([O-])[O-].[Cl][Pt+].c1ccc2c(c1)cnc1ccccc12 [phenanthriplatin, [c/s-R(NH3)2(phenanthridine)Cl][NO3], reference compound]",resistance factor RF = IC50(A2780cis)/IC50(A2780),[2],2.7
"N.N.O=[N+]([O-])[O-].[Cl][Pt+].c1ccncc1 [pyriplatin, [c/s-R(NH3)2(pyridine)Cl][NO3]]",potency relative to cisplatin or oxaliplatin,[3],ten-fold less potent
[Pt(CF3-phenanthridinenacac)Cl] [Complex 2],IC50,[1]; preliminary cytotoxicity data,0.341 ± 0.112 µM
same,toxicity against normal cells (HEK293),[4],less toxic than phenanthriplatin
same,toxicity against normal cells (MET-5A),[5],less toxic than phenanthriplatin
same,IC50 times lower than that of cisplatin,"[2]; A2780cis, 72 h",58 times
same,IC50,[2]; [9],0.55 ± 0.22 µM
same,resistance factor RF = IC50(A2780cis)/IC50(A2780),[2],1.1
same,IC50,[2]; [8],0.955 ± 0.106 µM
[Pt(tBu-phenanthridine-nacac)Cl] [Complex 1],IC50,[1]; preliminary cytotoxicity data,2.81 ± 0.168 µM
same,IC50,[2]; [8],4.57 ± 1.41 µM
